# What was measured:
# [1] = other studies (Kumar et al., 2012; Singh et al., 2011); cited from earlier work
# regular chow-fed mice = test: Metabolic homeostasis in regular chow-fed mice; format: in vivo, mouse; settings: regular chow (RC) feeding, 9-week treatment
# Description: Weekly body weight was monitored in different treatment mice for 10 weeks. Body mass composition was measured at the end of experiments using a minispec mqNMR spectrometer (Bruker Optics, Texas) (Garcia et al., 2013). A control group of mice were fed with regular chow diet (Purina 5001) in parallel with the two treatment groups in HFD. For db/db and db/db Clock^Δ19/Δ19 mice, male mice at 6-8 weeks of age were group-housed (2-3/cage) and maintained on regular chow diets. Mice were subjected to oral gavage with either DMSO or NOB as described above.
# Glucose tolerance test (GTT) and insulin tolerance test (ITT) were performed largely as described (He et al., 2015; Jeong et al., 2015). Briefly, after overnight and 5-hr fasting, GTT and ITT were conducted at ZT2 and ZT8 respectively. Glucose levels were measured from tail blood before and 15, 30, 60, or 120 min after injection of either 1 g/kg glucose or 0.75 U/kg insulin (Sigma) at ZT2 and ZT8 respectively by using the ONETOUCH UltraMini blood glucose monitoring system (LifeScan). Serum insulin levels were measured with the Rat/Mouse Insulin Elisa kit (Millipore) according to the manufacturer's instructions. The plasma samples were collected at ZT2 as described above for lipid assays.
# [2] = tested on: clock genes and metabolic output genes in mouse liver; test: Liver gene expression in HFD-fed WT mice (qPCR, Western blot, microarray); format: in vivo
# Description: For qPCR analysis, cells were split into 6-well plates at an initial density of 3×10^5 cells and incubated for 2-4 days before synchronization (5 μM Fsk or 100 nM Dex) followed by compound treatment. RNA samples were prepared by using PureXtract RNAsol for cDNA synthesis and real-time PCR (GenDEPOT) was performed with a MaxPro3000 Thermocycler (Agilent). qPCR primers used are listed in the table shown in Example 4. Whole cell lysates from cells similarly grown and treated in 60 mm dishes and tissue extracts were prepared as described (Yoo et al., 2013) and subjected to Western blot analysis (GenDEPOT). Antibodies for REV-ERBα (Pierce and Cell Signaling), PER1 (Lee et al., 2001) and other clock proteins (Yoo et al., 2013) were used. Total RNAs prepared from liver tissues from RC-fed, Vehicle-treated and HFD-fed, Vehicle or NOB-treated WT mice for 10 weeks were reverse transcribed into cDNAs, which were then biotin-UTP labeled and hybridized to the Illumina mouse WG-6v2.0 Expression BeadChip. Genes with statistically significant fold change differences was clustered using centered correlation (Cluster 3.0) and then visualized as a heat map on Tree View. Moreover, genes with statistically significant differences derived from microarray analyses were imported into the Ingenuity Pathway Analysis (IPA, http://www.ingenuity.com). In IPA, differentially expressed genes are mapped to genetic networks in the Ingenuity Knowledge Database to generate a set of network and then ranked by score. Heatmaps were generated by using Cluster 3.0 program. ChIP-seq data analysis was conducted as previously described (Koike et al., 2012). The data discussed in this publication have been deposited in NCBI's Gene Expression Omnibus (Edgar et al., 2002) and are accessible through GEO Series accession number GSE78848. To characterize the molecular basis of nobiletin action in HFD-fed WT mice, studies focused on a major metabolic organ, the liver, in which we observed a strong protection by nobiletin was observed. Specifically, total RNAs prepared from liver tissues from RC.Veh and HF.Veh or HF.nobiletin WT mice for 10 weeks were reverse transcribed into cDNAs, which were then biotin-UTP labeled and hybridized to the Illumina mouse WG-6v2.0 Expression BeadChip. The data discussed in this publication have been deposited in the National Center for Biotechnology Information's Gene Expression Omnibus (GEO) and are accessible through GEO Series accession number GSE78848. Real-time qPCR and western blotting analyses of circadian gene expression were conducted as previously described (Yoo et al., 2013). Primers used were as follows: […]
# [3] = tested on: Bmal1 promoter with RORα/γ knockdown; test: Bmal1 promoter-driven luciferase reporter in U2OS cells; format: cell-based
# [4] = Pharmacokinetic study in mice (LC-MS/MS); format: in vivo; settings: mouse, oral gavage 200 mg/kg; for exposure in plasma/serum, brain and liver: single dose, 200 mg/kg
# Description: For diet-induced obesity, male mice at 6 weeks of age were fed with HFD (D12492, Research Diets) until the end of the experimental protocol. The mice were treated with either vehicle (DMSO) or NOB (200 mg/kg body weight) via oral gavage every other day, in the time window of ZT8-10, throughout the experimental period. An every-other-day dosing regimen was chosen at the indicated level based on several reasons. First, previous in vivo studies have used similar overall amounts for mouse treatment (100-125 mg/kg/day) (Lee et al., 2013; Li et al., 2006). The oral gavage procedure was done in late afternoon (ZT8-10) prior to the start of their active phase, reasoning that this may coincide with the time-window adopted by previous studies. Second, daily dosing was not chosen to avoid entraining the experimental mice with the procedure per se as an artificial zeitgeber. Furthermore, pilot pharmacokinetic (PK) assays were done under a single-dose condition (Fig. S7). […] Therefore, it was reasoned that every-other day dosing helps avoid any incomplete daily clearance over the chronic experimental period (10 weeks). NOB was administered orally at ZT8 at a dose of 200 mg/kg in 0.25% sodium Carboxy Methyl Cellulose (CMC) suspension. Three mice per time point were sacrificed at 0.0, 1.0, 2.0, 4.0, 8.0 and 24.0 hr after oral gavage. NOB in plasma, brain and liver was determined by LC-MS/MS (API 4000: EQ-RS-MS-006).
# [5] = HF.nobiletin versus HF.Veh mice
smiles,measurement,setting,value
COc1ccc(-c2cc(=O)c3c(OC)c(OC)c(OC)c(OC)c3o2)cc1OC [nobiletin],NOB levels 24 hr after administration,[1],able to measure NOB levels 24 hr after administration
same,metabolic homeostasis,regular chow-fed mice,did not show significantly beneficial effects
same,metabolic homeostasis,regular chow-fed mice; listed as NOB,did not effect metabolic homeostasis
same,"ROR target genes (e.g., Cyp7b1, IkBa, and Gck)","[2]; DIO mouse liver, relative to control treatment",induced
same,circadian clock transcript oscillations in liver,[2]; [5],improved circadian clock transcript oscillations
same,clock protein rhythms in liver,[2]; [5],largely restored clock protein rhythms
same,transcript expression of Cidec/Fsp27 in liver,"[2]; HFD-fed WT mice, qPCR",reverted back to baseline levels
same,"expression of genes involved in gluconeogenesis and glycolysis (e.g., Pdk4 and Pkm2)",[2]; liver,altered the expression
same,induction of Bmal1 reporter after knockdown of RORα/γ by siRNAs,[3],abrogated the nobiletin-mediated induction
same,NOB level 8 hr after single-dose administration,[4],undetectable
same,"exposure in plasma/serum, brain and liver",[4],significant brain and systemic exposure
same,"exposure in plasma/serum, brain and liver",[4]; listed as NOB,"significant exposure in serum, brain and particularly liver"
